Results published in patent US20250296955A1, “PIN1 TARGETING COMPOUNDS AND DEGRADERS AND METHODS THEREOF” (The Regents of the University of California, priority 2024, published 2025).
Values belong to the molecule of their own block, whether it stands above or below them. Where a SMILES comes first, the peptide text is derived from it. [ ]: non-standard residue; d: D form. The star is where a group is joined. Tyr(3-NO2) = N[C@@H](Cc1ccc(O)c([N+](=O)[O-])c1)C(=O)O; Phe(4-NO2) = N[C@@H](Cc1ccc([N+](=O)[O-])cc1)C(=O)O; pY = N[C@@H](Cc1ccc(OP(=O)(O)O)cc1)C(=O)O; Phe(3-CN) = N#Cc1cccc(C[C@H](N)C(=O)O)c1; Phe(4-Cl) = N[C@@H](Cc1ccc(Cl)cc1)C(=O)O; Pip = O=C(O)[C@@H]1CCCCN1; ClAc = O=C(CCl)*

Tests used:
Pin1 [1] = molecular target: T1, Pin1 (Homo sapiens, UniProt Q13526); experiment: DELFIA displacement assay (displacement of biotinylated D-peptide from 6His-Pin1); format: binding; set-up: human Pin1 (residues 1-163); made in house; host or cells: E. coli BL21 (DE3) gold pLysS
T1 sequence (Q13526 whole entry, the tested form may be a part): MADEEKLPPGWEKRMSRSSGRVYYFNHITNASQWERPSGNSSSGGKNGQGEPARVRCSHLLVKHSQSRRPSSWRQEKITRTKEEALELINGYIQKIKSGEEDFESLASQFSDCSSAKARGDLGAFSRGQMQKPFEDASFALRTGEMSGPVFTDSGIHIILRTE
Description: (§1) Important to the success of structure activity relations studies, robust biochemical, biophysical, and cell-based assays were implemented that enabled rapid and iterative evaluations of test Pin1 targeting agents. First, the DELFIA (Dissociation-enhanced lanthanide fluorescent immunoassay) assay platform was used to derive a robust heterogeneous assay to monitor the ability of test agents to displace the binding between Pin1 and the D-Peptide (Table 1), which was obtained in a biotinylated form (FIG. 10). […] Second, for an orthogonal biophysical assay denaturation thermal shift measurements were used. Pin1 was incubated with vehicle control (buffer with 1% DMSO), or test agents at protein: ligand ratio of 1:2 (20 μM protein-40 μM compound) for 10 min at 10° C. in the presence of the fluorescent dye SYPRO Orange. The samples were gradually exposed to increasing temperature (linear gradient from 10° C. to 95° C.), causing the protein to unfold. This unfolding allowed the fluorescent dye to bind to the protein's exposed hydrophobic residues, resulting in an increase in fluorescence. The thermal shift assay measures the protein's melting temperature (Tm), which is the temperature at which the protein denatures by 50%. Ligands can affect a protein target to thermal denaturation, which could manifest in a positive or negative shift in the protein denaturation temperature (ΔTm) (Bai N, Roder H, Dickson A, & Karanicolas J (2019) Scientific Reports 9; and Kranz J K & Schalk-Hihi C (2011) Fragment-Based Drug Design: Tools, Practical Approaches, and Examples 493:277-298). Using these two assays, a series of commercially available Pin1 inhibitors were profiled (Table 1). The non-covalent agent D-peptide resulted only moderately active, with an IC50 value of ˜3 μM that closely resembled the dissociation constant for this agent determined via isothermal titration calorimetry, and the ˜ 3 μM IC50 value as reported by a fluorescence polarization assay (Pinch B J, et al. (2020) Nat Chem Biol 16(9):979-987). […] (Table 1) was observed.
For the reported covalent agents such as sulfopin (Dubiella C, et al. (2021) Nat Chem Biol 17(9):954-963), BJP-07-017-3 (Pinch B J, et al. (2020) Nat Chem Biol 16(9):979-987), or KPT-6566 (Campaner E, et al. (2017) Nat Commun 8:15772), a 6-h pre-incubation period was included in the DELFIA assay to allow the covalent reaction to take place. For those agents, IC50 values that fell in the low nanomolar range were observed, consistent with what was reported previously for those compounds. […] To make those determinations in a broader panel of cancer cell lines three pancreatic cancer cell lines, BxPC3, MIA-PaCa-2, and PANC-1, the breast cancer cell line MDA-MB-231, the prostate cancer cell line PC3, and the non-small cell lung cancer cell line A549 were chosen. Each cell line represents various states of KRAS activating mutations (for example BxPC3 is wt-KRAS, while MIAPaCa2 carries the KRAS(G12C) mutation, and the PANC-1 the KRAS(G12D) (Miquel M, Zhang S, & Pilarsky C (2021) Front Cell Dev Biol 9:748631), A549 is KRAS(G12S) (Wang H, et al. (2019) EBioMedicine 49:106-117), MDA-MB-231 is KRAS(G13D) (Kim R K, et al. (2015) Exp Mol Med 47(1):e137), PC3 is wt-KRAS (Bouali S, et al. (2009) Oncol Rep 21(3):731-735). Pin1 protein levels in these cell lines were established using a specific Pin1 antibody in western blot analyses (FIG. 1A). The data confirmed that all these selected human cancer cell lines expressed a significant level of Pin1 (FIG. 1A).
Each well of 96-well streptavidin-coated plates (PerkinElmer) was incubated with 100 μL of 200 nM biotinylated D-peptide for 2 h and washed 3 times with a wash solution (PerkinElmer). Subsequently, a mixture containing Pin1, and a serial dilution of the test compounds were pre-incubated for 6 h. Eu-N1-labeled anti-6x-His antibody (PerkinElmer, 1:2000) was then added to this mixture and further incubated in the biotinylated D-peptide-bound plates for another 2 h. […]

Pin1 [2] = molecular target: T1, Pin1; experiment: Denaturation thermal shift assay (SYPRO Orange); format: binding; set-up: human Pin1 (residues 1-163); made in house; host or cells: E. coli BL21 (DE3) gold pLysS
Description: as §1
Thermal shift assays for Pin1 alone and in the presence of the inhibitors were obtained with a BioRad CFX Connect Real-Time PCR Detection System. Each data point was collected in quadruplicate. Each sample was prepared using buffer 50 mM Phosphate pH 7.5, 150 mM NaCl, 1% DMSO. Protein: ligand ratio used was 1:2 (20 μM protein-40 μM compound), and SYPRO Orange was used. Incubation of the Pin1 protein with the compounds was performed at 10° C. for 10 min. Samples were then heated from 10 to 95° C. with heating increments of 0.05° C., over 30 min. Fluorescence intensity was measured within the excitation/emission ranges 470-505/540-700 nm.

[3] = Table 3, single transition, ± SE of four replicates
[4] = Table 5, only one transition given

Compound: O=C(CCl)N[C@@H](Cc1cccc(O)c1)C(=O)N1CCCC[C@H]1C(=O)NCCc1c[nH]c2cc(Cl)cc(Cl)c12 [164A2]
IC50 (Pin1 [1]; Table 3, ± SD from duplicates): 289 ± 23 nM
share of first thermal shift peak (Pin1 [2]; Table 3, percentage in brackets after first ΔTm): 10%
share of second thermal shift peak (Pin1 [2]; Table 3, percentage in brackets after second ΔTm): 90%
ΔTm (° C.), first of two peaks (Pin1 [2]; Table 3, two peaks observed, likely incomplete complex formation): −0.25 ± 0.31 °C

Compound: NC(=O)[C@H](Cc1c[nH]c2ccccc12)NC(=O)[C@@H]1CCCCN1C(=O)[C@H](Cc1ccc(OP(=O)(O)O)cc1)NC(=O)CCl [158E7] (ClAc-[pY]-[Pip]-Trp-NH2)
IC50 (Pin1 [1]; Table 3, ± SD from duplicates): 327 ± 25 nM
ΔTm (° C.) (Pin1 [2]; [3]): −7.08 ± 0.22 °C

Compound: NC(=O)[C@H](Cc1c[nH]c2ccccc12)NC(=O)[C@@H]1CCCCN1C(=O)[C@H](Cc1ccc(Cl)cc1)NC(=O)CCl [158G12] (ClAc-[Phe(4-Cl)]-[Pip]-Trp-NH2)
IC50 (Pin1 [1]; Table 3, ± SD from duplicates): 527 ± 38 nM
ΔTm (° C.) (Pin1 [2]; [4]): −12.19 ± 0.07 °C

Compound: NC(=O)[C@H](Cc1c[nH]c2ccccc12)NC(=O)[C@@H]1C[C@H]2CCCC[C@@H]2N1C(=O)[C@@H]1Cc2c([nH]c3ccccc23)CN1C(=O)CCl [164A4]
IC50 (Pin1 [1]; Table 4, ± SD from duplicates): 35 ± 5 nM
ΔTm (° C.) (Pin1 [2]; Table 4, single transition, ± SE of four replicates): −20.46 ± 0.04 °C

Compound: NC(=O)[C@H](Cc1c[nH]c2ccccc12)NC(=O)[C@@H]1C[C@H]2CCCC[C@@H]2N1C(=O)[C@H](Cc1c[nH]c2ccccc12)NC(=O)CCl [164A1]
IC50 (Pin1 [1]; Table 5): 1830 ± 394 nM
share of first denaturation transition (Pin1 [2]; Table 4, percentage in brackets after first ΔTm): 80%
share of second denaturation transition (Pin1 [2]; Table 4, percentage in brackets after second ΔTm): 20%
ΔTm (° C.), first of two denaturation transitions (Pin1 [2]; Table 4, two transitions observed, likely incomplete complex formation): −0.38 ± 0.15 °C

Compound: O=C(CCl)N[C@@H](Cc1c[nH]c2ccccc12)C(=O)N1CCCC[C@H]1C(=O)NCCc1c[nH]c2cc(Cl)cc(Cl)c12 [164A3]
IC50 (Pin1 [1]; Table 5): 1180 ± 45 nM
ΔTm (° C.) (Pin1 [2]; [4]): −13.68 ± 0.20 °C

Compound: N#Cc1cccc(C[C@H](NC(=O)CCl)C(=O)N2CCCC[C@H]2C(=O)N[C@@H](Cc2c[nH]c3ccccc23)C(N)=O)c1 [158G3] (ClAc-[Phe(3-CN)]-[Pip]-Trp-NH2)
IC50 (Pin1 [1]; Table 3, ± SD from duplicates): 132 ± 21 nM
ΔTm (° C.) (Pin1 [2]; [3]): −10.06 ± 0.07 °C

Further lines, results first:

IC50 (Pin1 [1]; Table 3, ± SD from duplicates): 82.4 ± 0.4 nM
ΔTm (° C.) (Pin1 [2]; [3]): −9.82 ± 0.08 °C
Compound: COc1ccc(C[C@H](NC(=O)CCl)C(=O)N2CCCC[C@H]2C(=O)N[C@@H](Cc2c[nH]c3ccccc23)C(N)=O)cc1 [158H5] (ClAc-Tyr(Me)-[Pip]-Trp-NH2)

ΔTm (° C.) (Pin1 [2]; Table 2, ± SE of four replicates): −10.66 ± 0.04 °C
Compound: CN(C(=O)CCl)[C@@H](Cc1ccccc1)C(=O)N1CCCC[C@H]1C(=O)N[C@@H](Cc1c[nH]c2ccccc12)C(N)=O [158D11] (HELM PEPTIDE1{[O=C(CCl)[*:2]].[meF].[O=C([C@@H]1CCCCN1[*:1])[*:2]].W.[am]}$$$$V2.0)

IC50 (Pin1 [1]; Table 3, ± SD from duplicates): 183 ± 12 nM
ΔTm (° C.) (Pin1 [2]; [3]): −10.44 ± 0.17 °C
Compound: NC(=O)[C@H](Cc1c[nH]c2ccccc12)NC(=O)[C@@H]1CCCCN1C(=O)[C@H](Cc1ccc(O)c([N+](=O)[O-])c1)NC(=O)CCl [158G10] (ClAc-[Tyr(3-NO2)]-[Pip]-Trp-NH2)

IC50 (Pin1 [1]; Table 3, ± SD from duplicates): 134 ± 13 nM
ΔTm (° C.) (Pin1 [2]; [3]): −10.16 ± 0.04 °C
Compound: NC(=O)[C@H](Cc1c[nH]c2ccccc12)NC(=O)[C@@H]1CCCCN1C(=O)[C@H](Cc1ccc([N+](=O)[O-])cc1)NC(=O)CCl [158G2] (ClAc-[Phe(4-NO2)]-[Pip]-Trp-NH2)
